The values that follow come from patent US5508277A, “Bicyclic pyrimidines” (Adir Et Compagnie, priority 1992, dated 1996).

Assay [1] relates to P388/VCR (murine leukaemia resistant to vincristine). The assay is described as follows: Increase in the anti-tumour activity of vincristine in vivo, compounds administered p.o. Set-up: species or system mice (female B6D2F1). Particulars: 100 mg/kg p.o., days 1, 2, 3 and 4; + vincristine 0.25 mg/kg i.p. An excerpt:
(§1) The sensitive parent line P388 (murine leukaemia) and the sub-line resistant to vincristine, P388/VCR, were supplied by NCI (Frederick, USA). The tumour cells (10^6 cells) were inoculated on day 0 into the intraperitoneal cavity of female B6D2F1 mice (Iffa Credo, France) weighing from 18 to 20 g (groups of 8 to 10 animals). In the case of i.p. administration of the compounds to be tested, the animals received on days 1, 5 and 9:
In the case of p.o. administration of the compounds to be tested, the animals received on days 1, 2, 3 and 4:
an administration by the oral route of 100 mg/kg of the compound of the present invention to be tested, then
30 to 60 minutes later, an administration by the i.p. route of 0.25 mg/kg of vincristine.
The anti-tumour activity is expressed as follows: [formula]
The activity of the reversing compound is expressed as T/V: [formula]

Assay [2] concerns DC-3F/AD cells. Kind of assay: Cytotoxicity of actinomycin D, reversal of MDR (reversion factor), Microculture Tetrazolium Assay. The class given is cell-based, Chinese hamster. As to conditions: compound at 5 μM, with actinomycin D, 4 days. How it is done: Two resistant cell lines were used:
The cells are distributed on microplates and exposed to the cytotoxic compound (actinomycin D or adriamycin) at 9 concentrations (2 by 2 series dilutions). The compounds tested for their capacity to reverse MDR are added at the same time as the cytotoxic agent. The cells are then incubated for 4 days. […] The results are expressed as a reversion factor (RF): [formula]

Assay [3] concerns P388/VCR (murine leukaemia resistant to vincristine). Kind of assay: Increase in the anti-tumour activity of vincristine in vivo, compounds administered i.p. Set-up: species or system mice (female B6D2F1). Particulars: for increase in anti-tumour activity of vincristine (in words): administered i.p., resistant tumour. How it is done: as §1, with “9: administration by the i.p. route of 25, 50 or 75 mg/kg of the compound of the present invention to be tested, then 30 to 60 minutes later, an administration by the i.p. route of 0.50 mg/kg of vincristine (used as a reference anti-tumour agent). The anti-tumour activity is expressed as follows: [formula] The activity of the reversing compound is expressed as T/V: [formula]” for “9:”

Where [4] appears, read: 25 mg/kg i.p., days 1, 5 and 9, + vincristine 0.50 mg/kg i.p.
[5] abbreviates: 50 mg/kg i.p., days 1, 5 and 9, + vincristine 0.50 mg/kg i.p.
The mark [6] stands for this setting: 75 mg/kg i.p., days 1, 5 and 9, + vincristine 0.50 mg/kg i.p.
The mark [7] stands for this setting: VCR only, 0.50 mg/kg i.p., no compound.

Turning to `C=CCNc1nc(N2CCC(NC3c4ccccc4N(C)S(=O)(=O)c4cc(Cl)ccc43)CC2)nc2c1ncn2CC=C` (single isomer, unassigned) [Example 15, (+)--(R)-- or --(S)-9-allyl-6-allylamino-2-{4-[(3-chloro-6-methyl-5,5-dioxo-6,11-dihydrodibenzo[c,f][1,2]thiazepin-11-yl)amino]piperidino)purine], the T/C in assay [1] was determined as 157.
On to `C=CCNc1nc(N2CCC(NCC3c4ccccc4CCc4ccccc43)CC2)nc2c1ncn2CC=C` [Example 1, 9-allyl-6-allylamino-2-{4-[(10,11-dihydro-5H-dibenzo-[a,d]cyclohepten-5-yl)methylamino]piperidino}purine], for which, in assay [2], the “REVERSION FACTOR 5 μM DC-3F/AD” value was found to be 5173. For the same molecule, the T/C % in assay [3] (setting [4]) is reported as 215%; in assay [3] (setting [5]), 239%; in assay [3] (setting [6]), 176%. Besides, the T/V in assay [3] (setting [4]) came to 1.54; in assay [3] (setting [5]), 1.71; in assay [3] (setting [6]), 1.26. For the same molecule, the “increase in anti-tumour activity of vincristine (in words)” value in assay [3] is on record as “substantially increase the anti-tumour activity of vincristine against a resistant tumour”. Besides, the T/C in assay [1] is given as 209.
Turning to `C=CCNc1nc(N2CCC(NCC3c4ccccc4CCc4ccccc43)CC2)c2ncn(CC=C)c2n1` [Example 2, 9-allyl-2-allylamino-6-{4-[(10,11-dihydro-5H-dibenzo-[a,d]cyclohepten-5-yl)methylamino]piperidino}purine], in assay [2], the “REVERSION FACTOR 5 μM DC-3F/AD” value was determined as 3368. The T/C % in assay [3] (setting [4]) is 192%; in assay [3] (setting [5]), 224%; in assay [3] (setting [6]), 235%. Also, the figures for the T/V in assay [3] (setting [4]), in assay [3] (setting [5]) and in assay [3] (setting [6]) were 1.37, 1.60 and 1.68, respectively. In assay [3], the “increase in anti-tumour activity of vincristine (in words)” value is reported as “substantially increase the anti-tumour activity of vincristine against a resistant tumour”. Also, in assay [1], the T/C stood at 172.
Regarding `C=CCNc1nc(N2CCC(NCC(c3ccc(F)cc3)c3ccc(F)cc3)CC2)nc2c1ncn2CC=C` [Example 3, 9-allyl-6-allylamino-2-{4-[2,2-bis(4-fluorophenyl)-ethylamino]piperidino}purine], the T/C in assay [1] is 203.
Same read-out and setting: the result for `C=CCNc1nc(N2CCC(NCC3c4ccccc4COc4ccccc43)CC2)nc2c1ncn2CC=C` (stereo not shown) [Example 5, 9-allyl-6-allylamino-2-{4-[(6,11-dihydrodibenzo[b,e]-oxepin-11-yl)methylamino]piperidino}purine] reads 196; that for `C=CCNc1nc(N2CCC(NCC3c4ccccc4C=Cc4ccccc43)CC2)nc2c1ncn2CC=C` [Example 6, 9-allyl-6-allylamino-2-{4-[(5H-dibenzo[a,d]cyclohepten-5-yl)methylamino]piperidino}purine], 188; that for `C=CCNc1nc(N2CCC(NCC3c4ccccc4CCc4ccccc43)CC2)nc2c1cnn2CC=C` [Example 9, 1-allyl-4-allylamino-6-{4-[(10,11-dihydro-5H-dibenzo[a,d]cyclohepten-5-yl)methylamino]piperidino}pyrazolo[3,4-d]pyrimidine], 161.
For the molecule `C=CCNc1nc(N2CCC(NCC(c3ccccc3)c3ccccc3)CC2)nc2c1ncn2CC=C` [Example 12, 9-allyl-6-allylamino-2-{4-[(2,2-diphenylethyl)amino]piperidino}purine], in assay [1], the T/C worked out at 192.
For the molecule `C=CCNc1nc(N2CCC(NCC3c4ccccc4CCc4cc(OC)ccc43)CC2)nc2c1ncn2CC=C` (stereo not shown) [Example 14, 9-allyl-6-allylamino-2-{4-[(2-methoxy-10,11-dihydro-5H-dibenzo[a,d]cyclohepten-5-yl)methylamino]piperidino}purine], in assay [1], the T/C is 202.
In assay [3] (setting [7]), `CC[C@]1(O)C[C@H]2CN(CCc3c([nH]c4ccccc34)[C@@](C(=O)OC)(c3cc4c(cc3OC)N(C=O)[C@H]3[C@@](O)(C(=O)OC)[C@H](OC(C)=O)[C@]5(CC)C=CCN6CC[C@]43[C@@H]65)C2)C1` [VCR, vincristine, reference compound] gave a T/C % of 140% and a T/V of 1.
`COc1ccc(CCN(C)CCCC(C#N)(c2ccc(OC)c(OC)c2)C(C)C)cc1OC` (stereo not shown) [verapamil, reference compound]: the “REVERSION FACTOR 5 μM DC-3F/AD” value in assay [2] was 3.
